Results as given in ChEMBL document CHEMBL3864142, “Allicin-inspired thiolated fluoroquinolones as antibacterials against ESKAPE pathogens” (2016).
≈ marks a conversion by molar mass, not a printed value. Calls of active or inactive are those of the source. The rule behind the calls is not given here.

Experiments:
[1] = system: Enterococcus faecium; test: Antibacterial activity against vancomycin-resistant Enterococcus faecium ATCC 700221 at 10 uM by disc diffusion method; assay type: functional; settings: read-out: DIZ
[2] = system: Staphylococcus aureus; test: Antibacterial activity against methicillin-resistant Staphylococcus aureus BAA-1747 at 10 uM by disc diffusion method; assay type: functional; settings: read-out: DIZ
[3] = system: Klebsiella pneumoniae; test: Antibacterial activity against ESBL-producer Klebsiella pneumoniae K6 700603 at 10 uM by disc diffusion method; assay type: functional; settings: read-out: DIZ
[4] = system: Acinetobacter baumannii; test: Antibacterial activity against ciprofloxacin-resistant Acinetobacter baumannii BAA-1605 at 10 uM by disc diffusion method; assay type: functional; settings: read-out: DIZ
[5] = system: Pseudomonas aeruginosa; test: Antibacterial activity against Pseudomonas aeruginosa ATCC 15442 at 10 uM by disc diffusion method; assay type: functional; settings: read-out: DIZ
[6] = system: Enterobacter cloacae; test: Antibacterial activity against Enterobacter cloacae ATCC 23355 at 10 uM by disc diffusion method; assay type: functional; settings: read-out: DIZ
[7] = system: Enterococcus faecalis; test: Antibacterial activity against vancomycin-susceptible Enterococcus faecalis ATCC 29212 at 10 uM by disc diffusion method; assay type: functional; settings: read-out: DIZ
[8] = system: Staphylococcus aureus; test: Antibacterial activity against methicillin-susceptible Staphylococcus aureus ATCC 29213 at 10 uM by disc diffusion method; assay type: functional; settings: read-out: DIZ
[9] = Antibacterial activity against vancomycin-intermediate resistant Staphylococcus aureus Mu50 ATCC 700699 at 10 uM by disc diffusion method; assay type: functional, Staphylococcus aureus subsp. aureus Mu50; settings: read-out: DIZ
[10] = system: Acinetobacter baumannii; test: Antibacterial activity against Acinetobacter baumannii ATCC 19606 at 10 uM by disc diffusion method; assay type: functional; settings: read-out: DIZ
[11] = Antibacterial activity against Bacillus anthracis Sterne 34F2 at 10 uM by disc diffusion method; assay type: functional, Bacillus anthracis str. Sterne; settings: read-out: DIZ
[12] = system: Staphylococcus epidermidis; test: Antibacterial activity against Staphylococcus epidermidis ATCC 14990 at 10 uM by disc diffusion method; assay type: functional; settings: read-out: DIZ
[13] = system: Staphylococcus aureus; test: Antibacterial activity against methicillin-susceptible Staphylococcus aureus ATCC 29213 by broth microdilution method; assay type: functional
[14] = system: Staphylococcus aureus; test: Antibacterial activity against methicillin-resistant Staphylococcus aureus BAA-1747 by broth microdilution method; assay type: functional
[15] = Antibacterial activity against vancomycin-intermediate resistant Staphylococcus aureus Mu50 ATCC 700699 by broth microdilution method; assay type: functional, Staphylococcus aureus subsp. aureus Mu50
[16] = system: Staphylococcus aureus; test: Bactericidal activity against methicillin-susceptible Staphylococcus aureus ATCC 29213 by broth microdilution method; assay type: functional
[17] = system: Staphylococcus aureus; test: Bactericidal activity against methicillin-resistant Staphylococcus aureus BAA-1747 by broth microdilution method; assay type: functional
[18] = Bactericidal activity against vancomycin-intermediate resistant Staphylococcus aureus Mu50 ATCC 700699 by broth microdilution method; assay type: functional, Staphylococcus aureus subsp. aureus Mu50
[19] = system: Staphylococcus aureus; test: Ratio of MBC to MIC for methicillin-susceptible Staphylococcus aureus ATCC 29213; assay type: functional
[20] = system: Staphylococcus aureus; test: Ratio of MBC to MIC for methicillin-resistant Staphylococcus aureus BAA-1747; assay type: functional
[21] = system: Staphylococcus aureus; test: Ratio of MBC to MIC for vancomycin-intermediate resistant Staphylococcus aureus Mu50 ATCC 700699; assay type: functional
[22] = Glutathione reactivity assessed as formation of S-(propylthio)glutathione and ciprofloxacin at 1 uM after 2 hrs by ESI-positive MS method
[23] = system: Staphylococcus aureus; test: Induction of reactive oxygen species formation in Staphylococcus aureus at 25 uM after 0.5 hrs by DCFH-DA probe-based fluorometric assay relative to control; assay type: functional
[24] = system: Staphylococcus aureus; test: Antibacterial activity against Staphylococcus aureus after overnight incubation in presence of antioxidant vitamin E by double-diffusion assay; assay type: functional
[25] = system: Staphylococcus aureus; test: Antibacterial activity against Staphylococcus aureus after overnight incubation in presence of GSH by double-diffusion assay; assay type: functional

Row | Compound | zone of inhibition at 10 µM [1] | zone of inhibition at 10 µM [2] | zone of inhibition at 10 µM [3] | zone of inhibition at 10 µM [4] | zone of inhibition at 10 µM [5] | zone of inhibition at 10 µM [6] | zone of inhibition at 10 µM [7] | zone of inhibition at 10 µM [8] | zone of inhibition at 10 µM [9] | zone of inhibition at 10 µM [10] | zone of inhibition at 10 µM [11] | zone of inhibition at 10 µM [12] | other results
1 | CCCCSN1CCN(c2cc3c(cc2F)c(=O)c(C(=O)O)cn3C2CC2)CC1 | 0 mm | 20 mm | 21 mm | 0 mm | 28 mm | 25 mm | 23 mm | 22 mm | 11 mm | 22 mm | 37 mm | 34 mm | –
2 | CSN1CCN(c2cc3c(cc2F)c(=O)c(C(=O)O)cn3C2CC2)CC1 | 0 mm | 23 mm | 22 mm | 10 mm | 29 mm | 23 mm | 21 mm | 24 mm | 11 mm | 23 mm | 36 mm | 33 mm | –
3 | CC(C)C(C)SN1CCN(c2cc3c(cc2F)c(=O)c(C(=O)O)cn3C2CC2)CC1 (stereo not given) | 0 mm | 23 mm | 26 mm | 0 mm | 31 mm | 29 mm | 25 mm | 28 mm | 9 mm | 26 mm | 32 mm | 29 mm | –
4 | CCC(C)SN1CCN(c2cc3c(cc2F)c(=O)c(C(=O)O)cn3C2CC2)CC1 (stereo not given) | 8 mm | 23 mm | 20 mm | 0 mm | 27 mm | 23 mm | 22 mm | 24 mm | 11 mm | 22 mm | 35 mm | 32 mm | –
5 | CCCSN1CCN(c2cc3c(cc2F)c(=O)c(C(=O)O)cn3C2CC2)CC1 | 0 mm | 24 mm | 25 mm | 0 mm | 32 mm | 29 mm | 28 mm | 29 mm | 11 mm | 27 mm | 38 mm | 37 mm | MIC [13]: 0.1 µM (≈ 0.0405 µg/mL); MIC [14]: 1.56 µM (≈ 0.633 µg/mL); MIC [15]: 50 µM (≈ 20.3 µg/mL); MBC [16]: 0.2 µM (≈ 0.0811 µg/mL); MBC [17]: 1.56 µM (≈ 0.633 µg/mL); MBC [18]: 50 µM (≈ 20.3 µg/mL); Ratio [19]: 2; Ratio [20]: 1; Ratio [21]: 1; Drug metabolism [22]: Metabolite detected; fold change (FC) [23]: 2 - 3; Activity [24]: Active; Activity [25]: Active
6 | O=C(O)c1cn(C2CC2)c2cc(N3CCNCC3)c(F)cc2c1=O [CIPROFLOXACIN] | 0 mm | 20 mm | 22 mm | 0 mm | 29 mm | – | 22 mm | 23 mm | 9 mm | 23 mm | 34 mm | – | MIC [13]: 0.1 µM (≈ 0.0331 µg/mL); MIC [14]: 1.56 µM (≈ 0.517 µg/mL); MIC [15]: 50 µM (≈ 16.6 µg/mL); MBC [16]: 0.78 µM (≈ 0.258 µg/mL); MBC [17]: 3.13 µM (≈ 1.04 µg/mL); MBC [18]: 50 µM (≈ 16.6 µg/mL); fold change (FC) [23]: 2 - 3; Activity [24]: Active; Activity [25]: Active
7 | O=C(O)c1cn(C2CC2)c2cc(N3CCN(Sc4ccccc4[N+](=O)[O-])CC3)c(F)cc2c1=O | 0 mm | 19 mm | 9 mm | 0 mm | 9 mm | 19 mm | 20 mm | 18 mm | 0 mm | 19 mm | 27 mm | 23 mm | –
8 | O=C(O)c1cn(C2CC2)c2cc(N3CCN(Sc4ccc([N+](=O)[O-])cc4)CC3)c(F)cc2c1=O | 8 mm | 24 mm | 21 mm | 0 mm | 27 mm | 23 mm | 25 mm | 29 mm | 11 mm | 23 mm | 32 mm | 36 mm | –
9 | CCCCCCSN1CCN(c2cc3c(cc2F)c(=O)c(C(=O)O)cn3C2CC2)CC1 | 8 mm | 18 mm | 16 mm | 0 mm | 23 mm | 19 mm | 15 mm | 18 mm | 9 mm | 15 mm | 30 mm | 26 mm | –
10 | CC(C)SN1CCN(c2cc3c(cc2F)c(=O)c(C(=O)O)cn3C2CC2)CC1 | 0 mm | 23 mm | 23 mm | 0 mm | 31 mm | 25 mm | 23 mm | 21 mm | 10 mm | 23 mm | 36 mm | 34 mm | –
11 | O=C(O)c1cn(C2CC2)c2cc(N3CCN(Sc4ccccc4)CC3)c(F)cc2c1=O | 10 mm | 22 mm | 20 mm | 0 mm | 27 mm | 26 mm | 20 mm | 21 mm | 12 mm | 23 mm | 36 mm | 23 mm | –
12 | CCSN1CCN(c2cc3c(cc2F)c(=O)c(C(=O)O)cn3C2CC2)CC1 | 0 mm | 22 mm | 23 mm | 0 mm | 32 mm | 25 mm | 25 mm | 24 mm | 11 mm | 24 mm | 37 mm | 32 mm | –
13 | CN[C@H](CC(C)C)C(=O)N[C@H]1C(=O)N[C@@H](CC(N)=O)C(=O)N[C@H]2C(=O)N[C@H]3C(=O)N[C@H](C(=O)N[C@H](C(=O)O)c4cc(O)cc(O)c4-c4cc3ccc4O)[C@H](O)c3ccc(c(Cl)c3)Oc3cc2cc(c3O[C@@H]2O[C@H](CO)[C@@H](O)[C@H](O)[C@H]2O[C@H]2C[C@](C)(N)[C@H](O)[C@H](C)O2)Oc2ccc(cc2Cl)[C@H]1O [VANCOMYCIN] | – | – | – | – | – | – | – | – | – | – | – | – | MIC [13]: 0.1 µM (≈ 0.145 µg/mL); MIC [14]: 0.1 µM (≈ 0.145 µg/mL); MIC [15]: 0.78 µM (≈ 1.13 µg/mL); MBC [16]: 0.1 µM (≈ 0.145 µg/mL); MBC [17]: 0.1 µM (≈ 0.145 µg/mL); MBC [18]: 0.78 µM (≈ 1.13 µg/mL); Ratio [19]: 1; Ratio [20]: 1; Ratio [21]: 1
14 | O=C(O)c1cn(C2CC2)c2cc(N3CCN(Sc4ccc(Cl)cc4)CC3)c(F)cc2c1=O | 8 mm | 17 mm | 20 mm | 0 mm | 26 mm | 22 mm | 20 mm | 21 mm | 12 mm | 20 mm | 34 mm | 29 mm | –
